In ChEMBL document CHEMBL3885861, “Open TG-GATES”:

Species on record: Rattus norvegicus
Assay: Open TG-GATES - Regimen: Single
Type: toxicity, organism-based, Sprague-Dawley
Design: regimen Single, gender Male, age 6 weeks
Conditions: in vivo, po, 300 mg/kg, route gavage, dose level Middle; for APTT / Bas / Eos / Fbg / Hb / Ht / Lym / MCH / MCHC / MCV / Mono / Neu / PT / Plat / RBC / Ret / WBC: tissue Blood; for KIDNEY_L / KIDNEY_R / KIDNEY_TOTAL: tissue Kidney; for LIVER: tissue Liver; for A/G / ALP / ALT / AST / BUN / CRE / Ca / Cl / DBIL / GLC / IP / K / LDH / Na / PL / RALB / TBIL / TC / TG / TP / gamma-GTP: tissue Plasma

For `CCOC(=O)CCC(=O)O[C@H]1[C@H](O[C@@H]2[C@@H](C)[C@H](O[C@H]3C[C@@](C)(OC)[C@@H](O)[C@H](C)O3)[C@@H](C)C(=O)O[C@H](CC)[C@@](C)(O)[C@H](O)[C@@H](C)C(=O)[C@H](C)C[C@@]2(C)O)O[C@H](C)C[C@@H]1N(C)C` [ERYTHROMYCIN ETHYLSUCCINATE], the TERMINAL_BW (3 h) was 220.4 g, the APTT (3 h) was 21.7 s and the Bas (3 h) was 0%. For the same molecule, the Eos (3 h) was 1%, the Fbg (3 h) was 294.4 mg/dL and the Hb (3 h) was 12.8 g/dL. For the same molecule, the Ht (3 h) was 38.6%, the Lym (3 h) was 75.4% and the MCH (3 h) was 21.2 pg. For the same molecule, the MCHC (3 h) was 33.2%, the MCV (3 h) was 63.8 fL and the Mono (3 h) was 2.6%. For the same molecule, the Neu (3 h) was 19.8%, the PT (3 h) was 15.7 s and the Plat (3 h) was 123.6 x10_4/uL. The RBC (3 h) was 606.2 x10_4/ul, the Ret (3 h) was 7.9% and the WBC (3 h) was 80.1 x10_2/uL. The KIDNEY_L (3 h) was 1 g, the KIDNEY_R (3 h) was 1 g and the KIDNEY_TOTAL (3 h) was 2.1 g. For the same molecule, the LIVER (3 h) was 10 g, the A/G (3 h) was 1.2 and the ALP (3 h) was 1689.6 IU/L. For the same molecule, the ALT (3 h) was 42.4 IU/L, the AST (3 h) was 74.2 IU/L and the BUN (3 h) was 11.6 mg/dL. The CRE (3 h) was 0.2 mg/dL, the Ca (3 h) was 10.5 mg/dL and the Cl (3 h) was 103.8 meq/L. For the same molecule, the DBIL (3 h) was 0.004 mg/dL, the GLC (3 h) was 179 mg/dL and the IP (3 h) was 9.1 mg/dL. The K (3 h) was 4.1 meq/L, the LDH (3 h) was 141 IU/L and the Na (3 h) was 138.6 meq/L. The PL (3 h) was 149 mg/dL, the RALB (3 h) was 2.9 g/dL and the TBIL (3 h) was 0.026 mg/dL. It also gave a TC (3 h) of 76.4 mg/dL, a TG (3 h) of 66.4 mg/dL and a TP (3 h) of 5.3 g/dL. For the same molecule, the gamma-GTP (3 h) was 1 IU/L, the TERMINAL_BW (6 h) was 216.3 g and the APTT (6 h) was 22.3 s. The Bas (6 h) was 0%, the Eos (6 h) was 0.8% and the Fbg (6 h) was 318.4 mg/dL. The Hb (6 h) was 13.1 g/dL, the Ht (6 h) was 39.8% and the Lym (6 h) was 77.8%. For the same molecule, the MCH (6 h) was 20.8 pg, the MCHC (6 h) was 32.8% and the MCV (6 h) was 63.5 fL. The Mono (6 h) was 3.8%, the Neu (6 h) was 16.4% and the PT (6 h) was 15.7 s. The Plat (6 h) was 115 x10_4/uL, the RBC (6 h) was 627.8 x10_4/ul and the Ret (6 h) was 8.7%. The WBC (6 h) was 87.9 x10_2/uL, the KIDNEY_L (6 h) was 1 g and the KIDNEY_R (6 h) was 1 g. It also gave a KIDNEY_TOTAL (6 h) of 2 g, an LIVER (6 h) of 9.2 g and an A/G (6 h) of 1.2. The ALP (6 h) was 1767.2 IU/L, the ALT (6 h) was 43.4 IU/L and the AST (6 h) was 72.8 IU/L. The BUN (6 h) was 10.8 mg/dL, the CRE (6 h) was 0.2 mg/dL and the Ca (6 h) was 10.6 mg/dL. It also gave a Cl (6 h) of 104 meq/L, a DBIL (6 h) of 0 mg/dL and a GLC (6 h) of 180 mg/dL. It also gave an IP (6 h) of 10.1 mg/dL, a K (6 h) of 4.2 meq/L and an LDH (6 h) of 160.2 IU/L. It also gave a Na (6 h) of 138.2 meq/L, a PL (6 h) of 140 mg/dL and an RALB (6 h) of 2.9 g/dL. The TBIL (6 h) was 0.032 mg/dL, the TC (6 h) was 75.6 mg/dL and the TG (6 h) was 50.6 mg/dL. It also gave a TP (6 h) of 5.4 g/dL, a gamma-GTP (6 h) of 1.2 IU/L and a TERMINAL_BW (9 h) of 210.5 g. The APTT (9 h) was 22.3 s, the Bas (9 h) was 0% and the Eos (9 h) was 1.2%. It also gave a Fbg (9 h) of 318.4 mg/dL, a Hb (9 h) of 13.4 g/dL and a Ht (9 h) of 40.5%. The Lym (9 h) was 79%, the MCH (9 h) was 20.8 pg and the MCHC (9 h) was 33%. The MCV (9 h) was 62.9 fL, the Mono (9 h) was 2.6% and the Neu (9 h) was 15.8%. It also gave a PT (9 h) of 15.6 s, a Plat (9 h) of 125.3 x10_4/uL and an RBC (9 h) of 645.4 x10_4/ul. The Ret (9 h) was 8%, the WBC (9 h) was 77.8 x10_2/uL and the KIDNEY_L (9 h) was 1 g. The KIDNEY_R (9 h) was 1 g, the KIDNEY_TOTAL (9 h) was 2 g and the LIVER (9 h) was 8.8 g. It also gave an A/G (9 h) of 1.2, an ALP (9 h) of 1386.8 IU/L and an ALT (9 h) of 33.8 IU/L. The AST (9 h) was 62.6 IU/L, the BUN (9 h) was 10 mg/dL and the CRE (9 h) was 0.2 mg/dL. For the same molecule, the Ca (9 h) was 10.5 mg/dL, the Cl (9 h) was 105.2 meq/L and the DBIL (9 h) was 0 mg/dL. The GLC (9 h) was 174.4 mg/dL, the IP (9 h) was 9.4 mg/dL and the K (9 h) was 4.2 meq/L. For the same molecule, the LDH (9 h) was 170.6 IU/L, the Na (9 h) was 138.8 meq/L and the PL (9 h) was 136 mg/dL. The RALB (9 h) was 3 g/dL, the TBIL (9 h) was 0.03 mg/dL and the TC (9 h) was 75.2 mg/dL. The TG (9 h) was 49.8 mg/dL, the TP (9 h) was 5.5 g/dL and the gamma-GTP (9 h) was 1.2 IU/L. The TERMINAL_BW (24 h) was 226.7 g, the APTT (24 h) was 20.4 s and the Bas (24 h) was 0%. For the same molecule, the Eos (24 h) was 1%, the Fbg (24 h) was 319.8 mg/dL and the Hb (24 h) was 13.7 g/dL. The Ht (24 h) was 41.1%, the Lym (24 h) was 85% and the MCH (24 h) was 21.1 pg. The MCHC (24 h) was 33.4%, the MCV (24 h) was 63.3 fL and the Mono (24 h) was 2.4%. It also gave a Neu (24 h) of 10.8%, a PT (24 h) of 16 s and a Plat (24 h) of 117.1 x10_4/uL. For the same molecule, the RBC (24 h) was 649.4 x10_4/ul, the Ret (24 h) was 7% and the WBC (24 h) was 88.2 x10_2/uL. For the same molecule, the KIDNEY_L (24 h) was 1 g, the KIDNEY_R (24 h) was 1 g and the KIDNEY_TOTAL (24 h) was 2 g. The LIVER (24 h) was 9.8 g, the A/G (24 h) was 1.2 and the ALP (24 h) was 1484 IU/L. For the same molecule, the ALT (24 h) was 37.4 IU/L, the AST (24 h) was 69.6 IU/L and the BUN (24 h) was 15.4 mg/dL. It also gave a CRE (24 h) of 0.1 mg/dL, a Ca (24 h) of 10.4 mg/dL and a Cl (24 h) of 106.8 meq/L. It also gave a DBIL (24 h) of 0.002 mg/dL, a GLC (24 h) of 195.4 mg/dL and an IP (24 h) of 8.1 mg/dL. The K (24 h) was 4.3 meq/L, the LDH (24 h) was 174.8 IU/L and the Na (24 h) was 142 meq/L. It also gave a PL (24 h) of 135.2 mg/dL, an RALB (24 h) of 2.9 g/dL and a TBIL (24 h) of 0.016 mg/dL. It also gave a TC (24 h) of 75.2 mg/dL, a TG (24 h) of 87.6 mg/dL and a TP (24 h) of 5.4 g/dL. It also gave a gamma-GTP (24 h) of 1.2 IU/L.
